The CheMixHub viscosity set

Assay: xn = mol fraction of the nth substance listed

C=C(C)C(=O)OC + C1CCCCC1
303.15 K, 101 kPa
Conditions | viscosity [mPa·s]
x1 = 0.1178 | 0.6811
x1 = 0.2021 | 0.6254
x1 = 0.3973 | 0.5474
x1 = 0.4984 | 0.5261
x1 = 0.5963 | 0.5188
x1 = 0.804 | 0.5141
x1 = 0.9019 | 0.5099

ClCCCCCCCl + C1CCCCC1
viscosity [mPa·s], 101 kPa
Conditions | x1 = 0.07055 | x1 = 0.1468 | x1 = 0.2554 | x1 = 0.3491 | x1 = 0.4438 | x1 = 0.5446 | x1 = 0.6382 | x1 = 0.7449 | x1 = 0.8743
308.15 K | 0.796 | 0.835 | 0.893 | 0.948 | 1.022 | 1.113 | 1.206 | 1.322 | 1.467
313.15 K | 0.721 | 0.759 | 0.818 | 0.873 | 0.947 | 1.036 | 1.126 | 1.246 | 1.387
318.15 K | 0.681 | 0.711 | 0.76 | 0.804 | 0.865 | 0.942 | 1.027 | 1.133 | 1.259

C=C(C)C(=O)OC + CC#N
viscosity [mPa·s], 101 kPa
Conditions | 298.15 K | 303.15 K | 308.15 K | 313.15 K | 318.15 K
x2 = 0.0688 | 0.5536 | 0.5171 | 0.4878 | 0.4643 | 0.4465
x2 = 0.1376 | 0.5439 | 0.5091 | 0.4811 | 0.4585 | 0.4413
x2 = 0.1957 | 0.5346 | 0.5013 | 0.4745 | 0.4526 | 0.4359
x2 = 0.2716 | 0.5214 | 0.4899 | 0.4643 | 0.4435 | 0.4275
x2 = 0.3344 | 0.5094 | 0.4795 | 0.455 | 0.435 | 0.4194
x2 = 0.4135 | 0.4932 | 0.4651 | 0.442 | 0.423 | 0.4079
x2 = 0.4916 | 0.4761 | 0.4498 | 0.4281 | 0.41 | 0.3954
x2 = 0.5649 | 0.4592 | 0.4344 | 0.4138 | 0.3967 | 0.3825
x2 = 0.6386 | 0.4413 | 0.4183 | 0.3988 | 0.3825 | 0.3687
x2 = 0.7084 | 0.4238 | 0.4023 | 0.3839 | 0.3683 | 0.3549
x2 = 0.7927 | 0.402 | 0.3823 | 0.3652 | 0.3505 | 0.3375
x2 = 0.855 | 0.3855 | 0.3672 | 0.351 | 0.3367 | 0.324
x2 = 0.9073 | 0.3714 | 0.3541 | 0.3387 | 0.3249 | 0.3123
x2 = 0.9497 | 0.3599 | 0.3435 | 0.3286 | 0.3152 | 0.3028

C[N+](C)(C)CCC[N+]1(C)CCCCC1.N#C[N-]C#N.N#C[N-]C#N + CC#N
viscosity [mPa·s], 100 kPa
Conditions | x1 = 0.0999 | x1 = 0.7001 | x1 = 0.7996
298.15 K | – | – | 895.3
318.15 K | 2.675 | 163.5 | –

C=C(C)C(=O)OC + CC(C)(C)O
viscosity [mPa·s], 101.3 kPa
Conditions | 298.15 K | 308.15 K
x1 = 0.0571 | 3.463 | 2.088
x1 = 0.1587 | 2.316 | 1.51
x1 = 0.256 | 1.652 | 1.15
x1 = 0.3589 | 1.217 | 0.898
x1 = 0.4561 | 0.956 | 0.738
x1 = 0.4983 | 0.873 | 0.686
x1 = 0.5567 | 0.782 | 0.627
x1 = 0.6571 | 0.672 | 0.555
x1 = 0.7563 | 0.608 | 0.511
x1 = 0.841 | 0.58 | 0.491
x1 = 0.9335 | 0.573 | 0.486

C=C(C)C(=O)OC + CC(C)CO
viscosity [mPa·s], 101.3 kPa
Conditions | 298.15 K | 308.15 K
x1 = 0.0547 | 2.74 | 2.077
x1 = 0.1398 | 2.067 | 1.621
x1 = 0.2311 | 1.576 | 1.274
x1 = 0.33 | 1.22 | 1.012
x1 = 0.4577 | 0.927 | 0.788
x1 = 0.5037 | 0.852 | 0.73
x1 = 0.5427 | 0.799 | 0.687
x1 = 0.6552 | 0.686 | 0.595
x1 = 0.7288 | 0.638 | 0.553
x1 = 0.8409 | 0.594 | 0.512
x1 = 0.9341 | 0.581 | 0.495

CCCCOP(=O)(O)OCCCC + CC(C)N
297 K, 101 kPa
Conditions | viscosity [mPa·s]
x2 = 0.15 | 80
x2 = 0.3 | 240
x2 = 0.48 | 4070
x2 = 0.5 | 4750
x2 = 0.66 | 260
x2 = 0.85 | 100

C=C(C)C(=O)OC + CC(C)O
viscosity [mPa·s], 101.3 kPa
Conditions | 298.15 K | 308.15 K
x1 = 0.0556 | 1.716 | 1.339
x1 = 0.1557 | 1.314 | 1.051
x1 = 0.2605 | 1.034 | 0.845
x1 = 0.3541 | 0.862 | 0.717
x1 = 0.4318 | 0.76 | 0.638
x1 = 0.5041 | 0.689 | 0.583
x1 = 0.5537 | 0.651 | 0.553
x1 = 0.6557 | 0.596 | 0.509
x1 = 0.7561 | 0.567 | 0.484
x1 = 0.8542 | 0.559 | 0.477
x1 = 0.9512 | 0.571 | 0.483

C=C(C)C(=O)OC + CC(C)OC(C)C
viscosity [mPa·s], 101.3 kPa
Conditions | 298.15 K | 308.15 K
x1 = 0.0416 | 0.385 | 0.291
x1 = 0.1479 | 0.401 | 0.309
x1 = 0.2488 | 0.417 | 0.326
x1 = 0.3488 | 0.434 | 0.344
x1 = 0.4527 | 0.453 | 0.364
x1 = 0.4958 | 0.461 | 0.372
x1 = 0.5472 | 0.472 | 0.383
x1 = 0.6489 | 0.493 | 0.404
x1 = 0.7504 | 0.517 | 0.427
x1 = 0.8502 | 0.542 | 0.451
x1 = 0.944 | 0.569 | 0.474

C=C(C)C(=O)OC + CCC(C)O
viscosity [mPa·s], 101.3 kPa
Conditions | 298.15 K | 308.15 K
x1 = 0.0597 | 2.462 | 2.057
x1 = 0.1551 | 1.779 | 1.481
x1 = 0.255 | 1.32 | 1.097
x1 = 0.3562 | 1.022 | 0.848
x1 = 0.4561 | 0.83 | 0.688
x1 = 0.5021 | 0.766 | 0.635
x1 = 0.5571 | 0.704 | 0.584
x1 = 0.6562 | 0.626 | 0.52
x1 = 0.7557 | 0.581 | 0.484
x1 = 0.8552 | 0.564 | 0.472
x1 = 0.9549 | 0.572 | 0.481

Cc1ccc(NC(=O)NC(C)CCCC(C)C)cc1NC(=O)NC(C)CCCC(C)C (centres undefined) + CCCCC
Conditions | viscosity [mPa·s]
293.15 K, 100 kPa, x1 = 0.0002 | 461

C=C(C)C(=O)OC + CCCCCC
303.15 K, 101 kPa
Conditions | viscosity [mPa·s]
x1 = 0.1029 | 0.2962
x1 = 0.2077 | 0.3069
x1 = 0.4005 | 0.3338
x1 = 0.5052 | 0.3523
x1 = 0.6046 | 0.3758
x1 = 0.7056 | 0.4934

CCCCCCCCCCCC(=O)[O-].[Na+] + CCCCCCCC(=O)O
100 kPa, x1 = 0.2
Conditions | viscosity [mPa·s]
293.15 K | 60.29
298.15 K | 47.97
303.15 K | 38.68
308.15 K | 31.58
313.15 K | 26.09
318.15 K | 21.79
323.15 K | 18.38

CCCCCCCCCCCC(=O)[O-].[Na+] + CCCCCCCCCC(=O)O
101 kPa, x1 = 0.2
Conditions | viscosity [mPa·s]
293.15 K | 76.59
298.15 K | 60.48
303.15 K | 48.43
308.15 K | 39.29
313.15 K | 32.27
318.15 K | 26.79
323.15 K | 22.48

C=C(C)C(=O)OC + CCCCCCCO
viscosity [mPa·s], 101.3 kPa
Conditions | 298.15 K | 308.15 K
x1 = 0.0526 | 4.782 | 3.544
x1 = 0.1258 | 3.728 | 2.828
x1 = 0.2484 | 2.538 | 1.991
x1 = 0.3455 | 1.926 | 1.546
x1 = 0.4471 | 1.483 | 1.213
x1 = 0.5009 | 1.307 | 1.078
x1 = 0.5615 | 1.143 | 0.95
x1 = 0.6456 | 0.965 | 0.81
x1 = 0.7444 | 0.811 | 0.685
x1 = 0.8476 | 0.695 | 0.588
x1 = 0.9438 | 0.618 | 0.522

C=C(C)C(=O)OC + CCCCCO
viscosity [mPa·s], 101.3 kPa
Conditions | 298.15 K | 308.15 K
x1 = 0.0449 | 3.018 | 2.317
x1 = 0.1463 | 2.195 | 1.733
x1 = 0.2463 | 1.658 | 1.34
x1 = 0.3476 | 1.29 | 1.064
x1 = 0.4311 | 1.077 | 0.9
x1 = 0.5019 | 0.941 | 0.793
x1 = 0.5439 | 0.876 | 0.74
x1 = 0.6459 | 0.753 | 0.641
x1 = 0.7431 | 0.674 | 0.575
x1 = 0.8477 | 0.619 | 0.527
x1 = 0.9445 | 0.591 | 0.501

CC(=O)Oc1ccccc1 + CCCCCOC(C)=O
Conditions | viscosity [mPa·s]
298.15 K, 101 kPa, x1 = 0.5 | 0.9319

COc1ccccc1C + CCCCCOC(C)=O
Conditions | viscosity [mPa·s]
298.15 K, 101 kPa, x1 = 0.5 | 0.8659

C=C(C)C(=O)OC + CCCCO
viscosity [mPa·s], 101.3 kPa
Conditions | 298.15 K | 308.15 K
x1 = 0.05 | 2.22 | 1.726
x1 = 0.1489 | 1.7 | 1.355
x1 = 0.2479 | 1.341 | 1.092
x1 = 0.3487 | 1.086 | 0.9
x1 = 0.4499 | 0.906 | 0.761
x1 = 0.5024 | 0.835 | 0.705
x1 = 0.5479 | 0.783 | 0.664
x1 = 0.6441 | 0.699 | 0.596
x1 = 0.7437 | 0.639 | 0.546
x1 = 0.8469 | 0.602 | 0.513
x1 = 0.9453 | 0.585 | 0.496

C=C(C)C(=O)OC + CCCCOCCCC
viscosity [mPa·s], 101.3 kPa
Conditions | 298.15 K | 308.15 K
x1 = 0.0446 | 0.633 | 0.581
x1 = 0.1479 | 0.616 | 0.561
x1 = 0.2442 | 0.603 | 0.546
x1 = 0.3388 | 0.593 | 0.532
x1 = 0.4495 | 0.584 | 0.519
x1 = 0.4924 | 0.581 | 0.515
x1 = 0.5489 | 0.579 | 0.51
x1 = 0.6504 | 0.576 | 0.502
x1 = 0.7489 | 0.575 | 0.496
x1 = 0.8501 | 0.577 | 0.492
x1 = 0.9428 | 0.581 | 0.49
